Results reported in US20110183336A1, “Method to Predict Responsiveness of Breast Cancer to Polyamine-Type Chemotherapy” (THE REGENTS OF THE UNIVERSITY OF CALIFORNIA, priority 2007, published 2011).

What was measured:
Type in all cases: cell-based
[1] = tested on: HT-29; test: MTT assay, percent cell survival; settings: Homo sapiens, HT-29, 144 h, HT-29, MTT, six days after drug treatment; read-out: ID50(μM) HT-29
Protocol: (§1) Cell lines and media: Human breast cancer cell line MCF7 was grown in Richter's Improved Modified Eagle's Medium supplemented with 10% fetal bovine serum (FBS) and 2.2 g/L sodium bicarbonate. Human brain cancer cell line U251MG-NCI was grown in Dulbecco's Modified Eagle's Medium supplemented with 10% FBS. Human lung cancer cell line A549 was grown in Ham's F-12K medium (Fisher Scientific, Itasca, Ill.), supplemented with 10% FBS and 2 mM L-glutamine. Human colon cancer cell line HT29 was cultured in McCoy's 5A medium (Gibco, BRL, Gaithersburg, Md.), supplemented with 10% FBS. Human prostate cancer cell line PC3 was grown in Dulbecco's Modified Eagles Medium supplemented with 5% FBS. The A549 and MCF7 cell lines were cultured in 100 units/mL penicillin and 100 μg/mL streptomycin. HT29 and U251MG cell lines were grown in 50 μg/mL gentamycin. PC3 cell lines were maintained in 1% antibiotic-antimycotic solution (Sigma, St. Louis, Mo.). The cell cultures were maintained at 37° C. in 5% CO2/95% humidified air. All cell cultures are available from the American Type Culture Collection, Rockville, Md.
(§2) Here, a conventional MTT assay was used to evaluate percent cell survival. Exponentially growing monolayer cells were plated in 96-well plates at a density of 500 cells per well and allowed to grow for 24 hours. Serial dilutions of the drugs were added to the wells. Six days after drug treatment, 25 μl of MTT solution (5 mg/ml) was added to each well and incubated for 4 hours at 37° C. Then 100 μl of lysis buffer (20% sodium dodecyl sulfate, 50% DMF, and 0.8% acetic acid, pH 4.7) was added to each well and incubated for an additional 22 hours. A microplate reader (“EMAX”-brand, Molecular Devices, Sunnyvale, Calif.) set at 570 nm was used to determine the optical density of the cultures. Results are expressed as a ratio of the optical density in drug-treated wells to the optical density in wells treated with vehicle only.
(§3) The ID50 is the drug concentration that killed 50% of the cultured cells.

[2] = tested on: MCF7; test: MTT assay, percent cell survival; settings: Homo sapiens, MCF7, 144 h, six days after drug treatment, read-out: ID50(μM) MCF7
Protocol: as §1, §2, §3

[3] = tested on: PC-3; test: MTT assay, percent cell survival; settings: Homo sapiens, PC-3, 144 h, PC-3, MTT, six days after drug treatment; read-out: ID50(μM) PC-3
Protocol: as §1, §2, §3

[4] = tested on: U251MG NCl; test: MTT assay, percent cell survival; settings: Homo sapiens, U-251, 144 h, six days after drug treatment, read-out: ID50(μM) U251MG NCl
Protocol: as §1, §2, §3

[5] = tested on: Human breast cancer cell line MCF7; test: Colony formation (plating efficiency) standard protocol; settings: MCF7, MCF7, 4 hours exposure, colony formation day 15-20, read-out: ED50 (the source's name)
Protocol: as §1
(§4) A standardized protocol was used to evaluate these test cultures:
(§5) Day 1: Ten standard culture flasks for each drug to be tested were plated with 5×10^5 cells of a given type in 5 mL of media and allowed to incubate for 16-24 hours at 37° C.
(§6) Day 2: Fresh stocks of the compounds to be evaluated are prepared. For each drug, two of the ten culture flasks prepared on Day 1 are used as controls. The control flasks are treated with solvent only. Four flasks for each compound are then treated with serially-diluted concentrations of the compound. The remaining flasks are left untouched. The cells are incubated for 4 hours at 37° C.
(§7) After 4 hours the control flasks are counted (2 counts for each flask) and the cells per mL calculated based on the average of the control counts. The cells are then re-plated into six 60 mm dishes for each flask from dilutions based on the cells/mL of the control. (In the various test runs, cell concentrations ranged from approximately 50 to approximately 800 cells per mL.)
(§8) Day 15-20: The cells are monitored for colony formation. When visible, the cells are stained with 0.5% crystal violet (in 95% EtOH) and counted. The plating efficiency for each dish is then calculated. The plating efficiencies of the six dishes for each flask are averaged and the standard deviation is calculated. The fraction of cell survival at each concentration is determined based on the controls.

[6] = tested on: human brain cancer cell line U251MG-NCI; test: as above
Protocol: as §1, §4, §5, §6, §7, §8

[7] = tested on: A549; test: MTT assay, percent cell survival; settings: Homo sapiens, A549, 144 h, six days after drug treatment, read-out: ID50(μM) A549
Protocol: Human brain cancer cell line U251MG-NCI was grown in Dulbecco's Modified Eagle's Medium supplemented with 10% FBS. […] Human prostate cancer cell line PC3 was grown in Dulbecco's Modified Eagles Medium supplemented with 5% FBS. […] The cell cultures were maintained at 37° C. in 5% CO2/95% humidified air.
as §2, §3

EC50 [5] [nM]	SMILES	IC50 [1] [µM]	IC50 [2] [µM]	IC50 [4] [µM]	further results
	CCNCCCNCC1CC1CNCCCNCC (stereo not drawn) [SL-11037]	1.6	> 31.2	0.1	IC50 [3]: 7.4 µM
1640	CCNCCCNCC1CCC1CNCCCNCC (stereo not drawn) [SL-11043]	1.5	25.5	0.1	
	CCNCCCNC1CC1NCCCNCC (stereo not drawn) [SL-11027]				inhibition of cell growth ([6]; 10 μM dose): marked inhibition of cell growth
	CCNCCCNC1CCC1NCCCNCC (stereo not drawn) [SL-11034]				inhibition of cell growth ([6]; 40 μM dose): marked inhibition of cell growth
1340	CCNCCCNCC1CC1CNCCCNCC (stereo not drawn) [SL-11038]				
	CCNCCCNCC1CCC1CNCCCNCC (stereo not drawn) [SL-11044]				IC50 [7]: 0.3 µM
